Measurements reported in patent US7247714B2, “Protection against oxidative stress and inflammation by a cytoprotective response element” (Atherogenics, Inc., priority 2001, dated 2007).
Entries after “also recorded” stand apart in the source; their conditions may differ.

How the values were obtained:
[1] = system: p3xCPRE/Luc; assay: Activation of p3xCPRE/Luc by small molecular weight organic compounds (Table 6); format: cell-based, human; details: luciferase activity 16 hours after exposure
Procedure: In the in vitro assay system described above, a stable HeLa cell line was generated that contains a stably-integrated copy of the CPRE-Luc gene.
HMECs and HeLa cells were transiently transfected with 1 μg of 3xCPRE-Luc and 0.1 μg of pRL-SV40. One day after transfection, cells were treated with the compounds listed in Table 6 Luciferase activities were determined 16 hours after exposure to the compounds. To generate stable HeLa cell lines that contain a stably-integrated copy of the CPRE-Luc gene, HeLa cells were transfected with p3xCPRE-Luc plus pcDNA-LacZ-Hyg (an expression vector containing the hygromycin drug resistance gene) using SuperFeet transfection reagent. Two days after transfection, cells were cultured in hygromycin (400 μg/ml)-containing selection medium until individual colonies were identified. The colonies were expanded and the presence of CPRE-Luc-containing clones was examined by inducible luciferase activity. […]

[2] = system: p3xCPRE/Luc; assay: p3xCPRE/Luc reporter, transient transfection in HMEC cells; format: cell-based, human; details: Compound A 10 μM
Procedure: (§1) In an effort to determine the utility of the CPRE-Luc reporter construct for the identification of small molecular weight compounds that activate the CPRE, the p3xCPRE/Luc reporter was transiently transfected into both HeLa and endothelial cells (HMECs). […] Similar results were obtained in HeLa cells with both t-BHQ and compound A (FIG. 12b).
(§2) HMECs and HeLa cells were transiently transfected with 1 μg of 3xCPRE-Luc and 0.1 μg of pRL-SV40. One day after transfection, cells were treated with t-BHQ or compound A. Luciferase activities were determined 16 hours after exposure to tBHQ. To generate stable HeLa cell lines that contain a stably-integrated copy of the CPRE-Luc gene, HeLa cells were transfected with p3xCPRE-Luc plus pcDNA-LacZ-Hyg (an expression vector containing the hygromycin drug resistance gene) using SuperFect transfection reagent. Two days after transfection, cells were cultured in hygromycin (400 μg/ml)-containing selection medium until individual colonies were identified. The colonies were expanded and the presence of CPRE-Luc-containing clones was examined by inducible luciferase activity. All experiments are an average of at least three independent determinations for each experimental sample.

[3] = system: p3xCPRE/Luc; assay: p3xCPRE/Luc reporter, transient transfection in HeLa cells; format: cell-based, human
Procedure: HMEC cells (passage 20) and HeLa cells were seeded into 6 well plates and were grown to approximately 60-70% confluency. Cells were transfected with 2 μg (HeLa) or 1 μg (HMEC) each of p3xCPRE/Luc reporter and Nrf-2 expression vector (an expression vector containing the full-length murine Nrf-2 gene under the control of the CMV promoter (Asakura & Karino (1990) Circ Res, 66:1045-1066). Cells were cultured for an additional 48 hours, and luciferase activity was determined (Promega). An average of at least three independent determinations were made for each experimental sample. Results are expressed as ratio of firefly/renilla luciferase.
as §1, §2

[4] = system: CPRE promoter; assay: Stable HeLa cell line with stably-integrated CPRE-Luc gene; format: cell-based, human
Procedure: Although transient transfection methods are useful for understanding molecular mechanisms of gene expression and cellular biology, they are not suitable for high-throughput screening of libraries of compounds. Therefore, a stable HeLa cell line was generated that contains a stably-integrated copy of the CPRE-Luc gene.
as §2

[5] = system: VCAM-1; assay: TNF-α-activated cell surface expression of VCAM-1 in cell culture models; format: cell-based; details: read-out: IC50, inhibition of TNF-α-activated cell surface expression of VCAM-1
[6] = system: murine model of allergen-induced peritonitis; assay: Murine model of allergen-induced peritonitis (Type 1 hypersensitivity), eosinophil recruitment; format: in vivo, mouse; details: Compound A 50 mg/kg/d intravenous, 1 or 4 hours prior to ovalbumin challenge
Procedure: To evaluate the anti-inflammatory potential of compound A, a murine model of Type 1 hypersensitivity was used. In this model mice are sensitized to ovalbumin and subsequently challenged with ovalbumin by intraperitoneal injection. This leads to eosinophil recruitment and accumulation in the peritoneal cavity 24-48 hours after the challenge.
6-8 week old Balb/c mice (weighing 20-30 g) were given subcutaneous injections of ovalbumin in alum (0.4 ml of 100 μg ovalbumin and 3.3 mg of Alum Inject) on days 0 and 7. The mice were challenged on day 14 with an intraperitoneal injection of ovalbumin (10 μg in 0.2 ml saline). The mice were sacrificed and peritoneal lavage fluid collected 48 hours after the challenge. The peritoneal fluid was concentrated and slide smears made using a cytospin centrifuge. Slides were stained with Diff-Quik and differential counts obtained by counting 300 cells. Compound A was administered by intravenous injection, in a vehicle composed of 95% Liposyn and 5% Tween 20, 4 or 1 hour prior to challenge. Compound A was compared to dexamethosone administered orally at a dose of 2.5 mg/kg/d.
In a common allergic inflammation, balb/C mice were divided into two groups: control/vehicle and Compound G treated. They were then sensitized to ovalbumin on days 0 and 7 with a subcutaneous injection of ovalbumin absorbed in aluminum hydroxide. The treated group was dosed i.v. 50 mg/kg in liposyn/tween and vehicle one day prior to challenge. The mice were then challenged with an intraperitoneal injection of ovalbumin on day 14 and sacrificed 48 hrs post-challenge. Peritoneal fluid was collected and spun down onto slides. Slides were stained with DiffQuik and a differential performed.

[7] = system: murine model of aerosolized ovalbumin-induced asthma; assay: Mouse asthma model, airway eosinophilia and hyperreactivity; format: in vivo
Procedure: Male BALB-C mice, 6 weeks of age, were randomly assigned to one of following groups: ova/ova, vehicle control, dexamethasone (3 mg/kg) treatment, and Compound A. Animals were weighed on day 0, 7, 12 and 14 and were given access to food and water ad libidum. Mice were sensitized intraperitoneally with 8 μg of ovalbumin and 1 mg of aluminum hydroxide on Day 0 and Day 5. The animals were exposed to aerosolized ovalbumin (0.5%) twice on Day 12 (1 hr & 10 minutes per exposure). The ovalbumin exposures were separated by at least 4 hours. Differentials were performed on bronchoaveolar lavage fluid on Day 14 to determine % eosinophils. Compound A was orally administered daily at a dose of 300 mg/kg from time of sensitization to termination of study to the Compound A group.

[8] = system: methylated BSA-induced model of delayed type hypersensitivity; assay: Mouse delayed type hypersensitivity model (methylated BSA), paw swelling; format: in vivo; details: Compound A 100 mg/kg intraperitoneal at -24, -1 and +6 hrs from challenge; paw weight 24 hours later
Procedure: Balb/C mice were divided into two groups: control/vehicle and treated. They were sensitized intradermally on day 0 with methylated BSA (metBSA), and then challenged with metBSA on day 7 in the right hind paw. Compound A was administered at a dose of 100 mg/kg to the treated group by intraperitoneal injection −24, −1 and +6 hrs from the time of challenge. All animals were sacrificed 24 hours later and the left and right hind paws weighed. The left hind paw weight was subtracted from the right hind paw to give the paw weight increase.

For COc1cc(OC)c(-c2cc3ccccc3s2)cc1/C=C/C(=O)c1cc(OC)c(OC)c(OC)c1 [Compound A, 3-(5-Benzo-[b]-thiophene-2-yl-2,4-dimethoxy-phenyl)-1-(3,4,5-trimethoxy-phenyl)propenone], the “CPRE Activity: concentration to achieve a two-fold induction of CPRE activity over control” value [1] was 4.5 µM, the “p3xCPRE/Luc activity (induction of transcription from the CPRE)” value [2] was “greater than two-fold; also recorded: significantly increased” and the p3xCPRE/Luc activity ([3]; Compound A 10 μM) was “significantly increased”. For the same compound, the p3xCPRE/Luc activity ([3]; compound A 15 μM (FIG. 9c)) was “significantly increased”, the “p3xCPRE/Luc activity, concentration-response” value ([3]; transient transfection, 5, 10 and 20 μM (FIG. 13)) was “dose-dependent response; also recorded: significantly increased” and the “CPRE/Luc activity, percent increase over control (vehicle) levels, concentration-response” value ([4]; Hela cells, 1.25, 2.5, 5, 10, 20 and 40 μM (FIG. 14)) was “significantly elevated in a concentration-dependent manner”. The “Concentration of maximum activation of the CPRE promoter” value ([4]; stable HeLa cell line (FIG. 14)) was “approximately 20 μM”, the IC50 [5] was about 1.4 µM and the “Eosinophil levels in peritoneal fluid (percent eosinophils)” value [6] was “significantly decreased”. The “Eosinophil levels in peritoneal fluid (percent eosinophils)” value ([6]; listed as compound A) was “significantly significant reduction”, the “Inhibition of eosinophilia in bronchoaveolar lavage fluid compared with vehicle controls” value ([7]; Compound A 300 mg/kg oral daily, Day 14, p<0.05) was 48% and the “Eosinophil levels in bronchoaveolar lavage fluid” value ([7]; Compound A 300 mg/kg/d oral) was “significantly decreased”. The “Lung function (airway hyperreactivity to methacholine)” value ([7]; Compound A 300 mg/kg/d oral, 300 mg/kg/day) was “significantly improved lung function” and the “Inhibition of paw swelling compared with the vehicle controls” value [8] was 79%.
